# Assay results as given in paper PMC9168369 (Frontiers in Pharmacology, 2022).
# Like-named read-outs stand apart in the source and are kept apart here.
# How the values were obtained:
# [1] = system: IDO1; settings: read-out: average IC50, cellular assay; ref Yue et al., 2017; Komiya and Huang, 2018; cited from earlier work
# [2] = system: SHEE cells (human immortalized esophageal epithelial cell line); assay: Toxicity to SHEE, MTT assay; format: cell-based; settings: 48 h, read-out: IC50 SHEE
# Method: Toxicity to SHEE was evaluated by using the MTT assay. The SHEE cells were seeded in 96-well plates with densities of 2,200–2,500 cells/well in 100 μl. One day after seeding, the concentration of the test compounds being between 0 and 50 μM, 0.1% DMSO were added to the cells as control. Approximately 2,200–2,500 transfected cells in 100 μl were incubated in quintuplicate in 96-well plates. After 48 h, MTT was added and incubated in the plate for 1–4 h in the incubator. The absorbance at 490 nm was measured using a microplate reader (Thermo).
# [3] = system: Hela cells; assay: Cell anti-proliferative activity, CCK8 assay; format: cell-based; settings: Homo sapiens, CCK8, 48 h, 0.25 to 16.0 μM
# Method: Cell anti-proliferative activity to Hela was evaluated by the CCK8 assay. The Hela cells were seeded at a density of 2,000 cells per well into a 96-well microplate in 100 μl of the growth medium. Cells were incubated at 37°C and 5% CO2 overnight. The next day, 100 μl per well of the diluted inhibitor in the growth medium was added with the final concentration from 0.25 to 16.0 μM. The cells were treated with DMSO as control. A series of dilutions were made in 0.1% DMSO in the assay medium so that the final concentration of DMSO was 0.1% in all of treatments. Cells were incubated at 37°C and 5% CO2 for 48 h. Then, 10 μl of CCK8 was added to each well. The plates were incubated at 37°C for 2 h, after that, the plates were recorded by measuring the absorbance at 450 nm with the reference wavelength of 630 nm using an EnVision Multilabel Reader (PerkinElmer). All assays were conducted with three parallel samples and three repetitions.
# [4] = parameters: method as in Ma et al. (2019); settings: ref Ma et al. (2019); cited from earlier work
# [5] = molecular target: T1, human IDO1 (Homo sapiens, UniProt P14902); assay: Hela cell based IDO1 assay (kynurenine readout, IFN-γ induced); settings: Hela cells, human IFN-γ 100 ng/ml, 18 h
# T1 construct: Hela cell was selected because of its expression in native human IDO1 induced with IFNγ; endogenous in cells; host or cells: Hela cells (ATCC), induced with human IFN-γ 100 ng/ml
# T1 sequence (P14902 whole entry): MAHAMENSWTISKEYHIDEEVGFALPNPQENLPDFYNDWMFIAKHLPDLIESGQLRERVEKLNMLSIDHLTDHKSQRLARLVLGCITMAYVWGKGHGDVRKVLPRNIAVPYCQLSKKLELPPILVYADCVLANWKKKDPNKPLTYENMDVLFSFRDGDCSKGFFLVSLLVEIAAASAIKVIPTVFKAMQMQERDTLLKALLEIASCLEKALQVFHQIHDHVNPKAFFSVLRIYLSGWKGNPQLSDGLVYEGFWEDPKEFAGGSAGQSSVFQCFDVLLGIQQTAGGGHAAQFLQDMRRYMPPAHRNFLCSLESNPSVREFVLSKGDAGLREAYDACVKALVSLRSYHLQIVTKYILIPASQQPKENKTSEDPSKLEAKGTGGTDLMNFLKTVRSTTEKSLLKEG
# Method: To perform the Hela cell based IDO1 assay, Hela cells were seeded at 50,000 cells per well into a 96-well microplate in 100 μl of DMEM complete growth medium overnight. The next day, 100 μl of the diluted inhibitor was added into each well in the growth medium, then human IFN-γ was added with a final concentration of 100 ng/ml. Cells were incubated for 18 h. […] The plate was incubated at 50°C for 30 min to hydrolyze N-formyl kynurenine produced by IDO to kynurenine. The plate was then centrifuged at 2,500 rpm for 10 min to remove sediments. 100 μl of supernatant per well was transferred to another 96-well plate and mixed with 100 μl of 2% (w/v) 4-(dimethylamino) benzaldehyde in acetic acid. The plate was incubated at room temperature for 10 min, the yellow color derived from kynurenine was recorded by measuring the absorbance at 480 nm using a microplate reader (PerkinElmer, United States).
Compound,IC50 [3],melting point,IC50 [5],also measured
"C#Cc1cccc(Nc2ncnc3cc(OCCOC)c(OCCOC)cc23)c1 [Erlotinib, reference compound]",> 16 µM,–,–,IC50 [2]: 21 ± 2.11 µM
O[C@H](C[C@H]1c2c(F)cccc2-c2cncn21)[C@H]1CC[C@H](O)CC1 [Navoximod],–,–,–,absorption [4]: quickly absorbed; tolerability [4]: well tolerated
"COCCOc1cc2ncnc(Nc3cccc(-c4cn(-c5ccccc5)nn4)c3)c2cc1OCCOC [compound a, [6,7-Bis-(2-methoxy-ethoxy)-quinazolin-4-yl]-[3-(1-phenyl-1H-[1,2,3]triazol-4-yl)-phenyl]-amine]",> 16 µM,–,–,–
"COCCOc1cc2ncnc(Nc3cccc(-c4cn(Cc5ccccc5)nn4)c3)c2cc1OCCOC [compound b, N-(3-(1-Benzyl-1H-1,2,3-triazol-4-yl)phenyl)-6,7-bis(2-methoxyethoxy)quinazolin-4-amine]",> 16 µM,89 to 92 °C,–,"IC50 ([2]; MTT, 0 to 50 μM): > 50 µM"
"COCCOc1cc2ncnc(Nc3cccc(-c4cn(CCc5ccccc5)nn4)c3)c2cc1OCCOC [compound c, [6,7-Bis-(2-methoxy-ethoxy)-quinazolin-4-yl]-[3-(1-phenethyl-1H-[1,2,3]triazol-4-yl)-phenyl]-amine]",> 16 µM,109 to 112 °C,47.1 ± 33.2 µM,–
"COCCOc1cc2ncnc(Nc3cccc(-c4cn(Cc5ccccc5I)nn4)c3)c2cc1OCCOC [compound d, [6,7-Bis-(2-methoxy-ethoxy)-quinazolin-4-yl]-{3-[1-(2-iodo-benzyl)-1H-[1,2,3]triazol-4-yl]-phenyl}-amine]",–,93 to 96 °C,0.4 ± 0.14 µM,–
"COCCOc1cc2ncnc(Nc3cccc(-c4cn(Cc5ccccc5Br)nn4)c3)c2cc1OCCOC [compound e, [6,7-Bis-(2-methoxy-ethoxy)-quinazolin-4-yl]-{3-[1-(2-bromo-benzyl)-1H-[1,2,3]triazol-4-yl]-phenyl}-amine]",> 16 µM,94 to 97 °C,0.32 ± 0.07 µM,–
